13 compounds from PubChem BioAssay (NCI) can be followed below.

The structures appear in SMILES notation. Values joined by “and” are separate entries in the source; they are usually repeats but may differ in a detail not shown here. Identical values can stand only once.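 Interpolation was linear, between the two tested concentrations surrounding the appropriate level; five concentrations were tested over 48 hours in 96-well plates. GI50: concentration for 50% inhibition of growth. TGI: total growth inhibition.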

Some test systems named below: CCRF-CEM leukemia; EKVX NSCLC; M14 melanoma; NCI-H226 lung; NCI-H23 lung; OVCAR-4 ovarian; OVCAR-5 ovarian; SNB-75 CNS; U251 CNS; UO-31 renal.
Holding throughout (assay): NCI-60 cell line screen, 48 h

Regarding `COC(C(=O)[C@@H](O)[C@@H](C)O)[C@@H]1Cc2cc3cc(O[C@H]4C[C@@H](O[C@H]5C[C@@H](O)[C@H](O)C(C)O5)[C@H](O)C(C)O4)c(C)c(O)c3c(O)c2C(=O)[C@H]1O[C@H]1C[C@@H](O[C@H]2C[C@@H](O[C@H]3C[C@@H](O)[C@H](OC)C(C)O3)[C@@H](O)C(C)O2)[C@H](O)C(C)O1` (stereo partly specified), the GI50 with CCRF-CEM leukemia is 0.0425 µM; with M14 melanoma, 0.0372 µM; in the assay on NCI-H226 lung, 0.0209 µM; in the assay with NCI-H23 lung it was 0.0184 µM; in the assay with OVCAR-4 ovarian, 0.049 µM; with UO-31 renal, 0.0953 µM. The TGI was > 13.1 µM with CCRF-CEM leukemia; > 33.3 µM in the assay with EKVX NSCLC; 0.349 µM with M14 melanoma; > 33.3 µM with NCI-H226 lung; 0.234 µM with NCI-H23 lung; > 26.5 µM with OVCAR-4 ovarian. Further, the TGI with OVCAR-5 ovarian was > 33.3 µM; in the assay on SNB-75 CNS, 0.23 µM; in the assay on U251 CNS, > 33.3 µM; in the assay on UO-31 renal, 0.934 µM.
In the case of `COCOc1ccc(C2(O)Oc3cc(OCOC)ccc3C2C)c(O)c1` (stereo unspecified), the TGI is 53.7 µM in the assay with CCRF-CEM leukemia; 28.2 µM in the assay on EKVX NSCLC; 30.4 µM in the assay on M14 melanoma; 31.2 µM in the assay with NCI-H226 lung; 23.9 µM in the assay on NCI-H23 lung; 32.1 µM with OVCAR-4 ovarian. Further, the TGI with OVCAR-5 ovarian was determined as 31.3 µM; in the assay with SNB-75 CNS, 30.4 µM; with U251 CNS, 28.2 µM; in the assay with UO-31 renal, 23.8 µM.
Regarding `N.N.NCCCCCCCCCN.O=C([O-])CC(=O)[O-].O=C([O-])CC(=O)[O-].[Pt+4].[Pt+4]`, the GI50 in the assay with CCRF-CEM leukemia was 21.1 µM; in the assay with EKVX NSCLC, > 100 µM; in the assay on M14 melanoma it was 50.5 µM; in the assay with NCI-H226 lung it was > 100 µM; with NCI-H23 lung it was > 100 µM; in the assay on OVCAR-4 ovarian, > 100 µM. Further, the GI50 was > 100 µM with OVCAR-5 ovarian, > 100 µM in the assay with SNB-75 CNS, 95.2 µM with U251 CNS and > 100 µM with UO-31 renal. Further, the TGI with CCRF-CEM leukemia, with EKVX NSCLC, in the assay on M14 melanoma, with NCI-H226 lung, in the assay on NCI-H23 lung and with OVCAR-4 ovarian was > 100 µM throughout. Besides, the TGI with OVCAR-5 ovarian, in the assay with SNB-75 CNS, in the assay with U251 CNS and with UO-31 renal was > 100 µM in each case.
Take `[F][Sn]([F])([c]1ccccc1)[c]1ccccc1`: the GI50 is 0.688 µM in the assay on CCRF-CEM leukemia; 1.83 µM with EKVX NSCLC; 2.08 µM in the assay with M14 melanoma; 2.11 µM in the assay on NCI-H226 lung; 1.85 µM with NCI-H23 lung; 1.68 µM in the assay with OVCAR-4 ovarian. In addition, the GI50 in the assay on OVCAR-5 ovarian was 1.51 µM; with SNB-75 CNS it was 1.7 µM; with U251 CNS, 1.63 µM; with UO-31 renal, 1.92 µM. Moreover, the TGI with CCRF-CEM leukemia came to 3.82 µM; in the assay with EKVX NSCLC, 3.96 µM; with M14 melanoma it was 4.45 µM; with NCI-H226 lung it was 4.26 µM; in the assay with NCI-H23 lung, 3.7 µM; in the assay on OVCAR-4 ovarian, 3.39 µM. In addition, the TGI was found to be 3.69 µM in the assay on OVCAR-5 ovarian, 4.61 µM with SNB-75 CNS, 3.05 µM in the assay with U251 CNS and 3.34 µM in the assay on UO-31 renal.
For `Cc1cccc(C(C)C)c1NC(=O)C(=O)C(C(=O)c1ccccc1F)C1OC(=O)c2ccccc21` (stereo unspecified), the TGI in the assay on CCRF-CEM leukemia worked out at 41 µM; with EKVX NSCLC, 96.6 µM; with M14 melanoma it was 38.5 µM; in the assay on NCI-H226 lung, 21.5 µM; with NCI-H23 lung, 40.6 µM; in the assay with OVCAR-4 ovarian, 74.2 µM. The TGI with OVCAR-5 ovarian is 99.9 µM; with SNB-75 CNS it was 45.9 µM; in the assay with U251 CNS it was 37.3 µM; in the assay with UO-31 renal it was 38.3 µM.
Turning to `COc1ccc(Cc2cnc(NC(=O)c3ccc4c(c3)OCCO4)s2)cc1`, the GI50 was 0.0388 µM with CCRF-CEM leukemia; 0.0596 µM in the assay on EKVX NSCLC; 0.0228 µM in the assay on M14 melanoma; 1.72 µM in the assay with NCI-H226 lung; 0.0537 µM in the assay on NCI-H23 lung; 0.0836 µM in the assay with OVCAR-4 ovarian. The GI50 in the assay on OVCAR-5 ovarian is 0.0866 µM; in the assay with SNB-75 CNS, 0.0192 µM; in the assay on U251 CNS, 0.0388 µM; in the assay with UO-31 renal, 1.2 µM. The TGI is > 100 µM in the assay with CCRF-CEM leukemia; > 100 µM in the assay with EKVX NSCLC; 22.4 µM with M14 melanoma; 88.5 µM in the assay on NCI-H226 lung; > 100 µM with NCI-H23 lung; > 100 µM with OVCAR-4 ovarian. Moreover, the TGI with OVCAR-5 ovarian is > 72.6 µM; with SNB-75 CNS, 44 µM; with U251 CNS it was > 85.8 µM; in the assay with UO-31 renal, > 100 µM.
Take `COc1cc(C(=O)N2CCc3c([nH]c4c([N+](=O)[O-])c(OC)ccc34)C2C)cc(OC)c1OC` (stereo unspecified): the TGI with CCRF-CEM leukemia, in the assay on EKVX NSCLC, with M14 melanoma, in the assay on NCI-H226 lung, with NCI-H23 lung and with OVCAR-4 ovarian was > 100 µM in each case. Moreover, the TGI in the assay on OVCAR-5 ovarian is > 100 µM; in the assay with SNB-75 CNS, 98.3 µM; in the assay on U251 CNS it was > 100 µM; with UO-31 renal, > 100 µM.
Consider `CC[C@@]1(O)C(=O)OCc2c1cc1n(c2=O)Cc2c-1nc1cc(F)c(C)c3c1c2[C@@H](N)CC3`, for which the GI50 is < 0.01 µM with CCRF-CEM leukemia; 0.0377 µM with EKVX NSCLC; < 0.01 µM in the assay with M14 melanoma; < 0.01 µM with NCI-H226 lung; < 0.01 µM in the assay on NCI-H23 lung; 0.0656 µM in the assay with OVCAR-4 ovarian. Further, the GI50 in the assay with OVCAR-5 ovarian was 0.0201 µM; in the assay with SNB-75 CNS, < 0.0137 µM; with U251 CNS it was < 0.01 µM; with UO-31 renal, < 0.01 µM. Further, the TGI is > 100 µM with CCRF-CEM leukemia; > 100 µM in the assay with EKVX NSCLC; 0.111 µM with M14 melanoma; 0.0358 µM in the assay on NCI-H226 lung; 0.0638 µM with NCI-H23 lung; > 100 µM with OVCAR-4 ovarian. In addition, the TGI in the assay on SNB-75 CNS was 0.101 µM; with U251 CNS it was > 100 µM; in the assay on UO-31 renal, 0.108 µM.
Turning to `C/C(=N\NC(=S)N1CC2CCC(CC2)C1)c1ccccn1`, the GI50 is 0.0335 µM in the assay with CCRF-CEM leukemia; 0.0322 µM in the assay on EKVX NSCLC; 0.0431 µM in the assay on M14 melanoma; 0.394 µM in the assay on NCI-H226 lung; 0.0179 µM in the assay on NCI-H23 lung; 0.0238 µM in the assay on OVCAR-4 ovarian. Further, the GI50 is 0.0949 µM in the assay on OVCAR-5 ovarian, 0.643 µM with SNB-75 CNS, 0.0473 µM in the assay with U251 CNS and 0.021 µM in the assay on UO-31 renal. For the same compound, the TGI stood at 1.16 µM in the assay on EKVX NSCLC; 1.21 µM in the assay with M14 melanoma; 1.91 µM in the assay with NCI-H226 lung; 3.34 µM with NCI-H23 lung; 1.1 µM in the assay with OVCAR-4 ovarian; 2.73 µM with OVCAR-5 ovarian. Besides, the TGI amounted to 2.07 µM with SNB-75 CNS, 1.19 µM in the assay with U251 CNS and 1.63 µM in the assay with UO-31 renal.
In the case of `COC(=O)/C(=C\c1ccc(N(CCC#N)CCC#N)cc1)NC(=O)c1cc([N+](=O)[O-])ccc1Cl`, the TGI in the assay with CCRF-CEM leukemia, in the assay on EKVX NSCLC, with M14 melanoma, in the assay on NCI-H226 lung, in the assay with NCI-H23 lung and in the assay with OVCAR-4 ovarian was > 100 µM throughout. For the same compound, the TGI in the assay with OVCAR-5 ovarian, in the assay with SNB-75 CNS, in the assay on U251 CNS and with UO-31 renal was > 100 µM in each case.
As to `Nc1nc(N)nc(CCCc2nc(N)nc(N)n2)n1`, the TGI with CCRF-CEM leukemia, in the assay with EKVX NSCLC, in the assay on M14 melanoma, in the assay with NCI-H226 lung, in the assay on NCI-H23 lung and in the assay with OVCAR-4 ovarian was > 100 µM each time. Moreover, the TGI in the assay on OVCAR-5 ovarian, in the assay on SNB-75 CNS, with U251 CNS and in the assay with UO-31 renal was > 100 µM each time.
As for `CCCCCCCCCCCCOC1C(C(CC(=O)NCCN2CCCC2)NS(=O)(=O)c2cc(Cl)cc(Cl)c2)OC2OC(C)(C)OC21` (stereo unspecified), the GI50 with CCRF-CEM leukemia was 0.00586 µM; with EKVX NSCLC it was 1.87 µM; with M14 melanoma it was 1.71 µM; with NCI-H226 lung, 1.86 µM; in the assay on NCI-H23 lung, 2.21 µM; with OVCAR-4 ovarian it was 2 µM and 1.7 µM. The GI50 in the assay with OVCAR-5 ovarian was 2.17 µM; with SNB-75 CNS it was 1.9 µM and 1.42 µM; with U251 CNS it was 1.92 µM; with UO-31 renal, 1.9 µM. The TGI in the assay on CCRF-CEM leukemia is 0.0349 µM; in the assay with EKVX NSCLC, 3.49 µM; in the assay on M14 melanoma it was 3.45 µM; with NCI-H226 lung, 4.04 µM; with NCI-H23 lung, 4.76 µM; in the assay with OVCAR-4 ovarian it was 3.7 µM and 3.51 µM. In addition, the TGI in the assay with OVCAR-5 ovarian is 4.34 µM; in the assay with SNB-75 CNS, 3.56 µM and 2.86 µM; in the assay on U251 CNS it was 3.58 µM; in the assay with UO-31 renal it was 3.44 µM.
On to `Nc1nc(N)c2cc(CNc3ccc(C(=O)NC(CC(=O)O)C(=O)O)c(Cl)c3)ccc2n1` (stereo unspecified), for which the GI50 in the assay with CCRF-CEM leukemia is 0.05 µM; in the assay on EKVX NSCLC it was > 500 µM; in the assay with M14 melanoma it was 0.05 µM; with NCI-H226 lung, > 500 µM; in the assay with NCI-H23 lung, 0.05 µM; in the assay on OVCAR-5 ovarian it was 0.05 µM. Also, the GI50 with SNB-75 CNS is 71.7 µM; in the assay on UO-31 renal it was 0.244 µM. Moreover, the TGI in the assay with CCRF-CEM leukemia was > 500 µM; with EKVX NSCLC, > 500 µM; in the assay on M14 melanoma it was > 500 µM; in the assay on NCI-H226 lung, > 500 µM; in the assay with NCI-H23 lung, 64 µM and 491 µM; with OVCAR-4 ovarian, > 500 µM. In addition, the TGI in the assay on OVCAR-5 ovarian, with SNB-75 CNS and in the assay on UO-31 renal was > 500 µM in each case.
